In this assay the target is T1, His6-DDR2 (cytoplasmic domain of human DDR2) (Homo sapiens, UniProt Q16832).
T1 construct: cytoplasmic domain of DDR2 having 6 histidines fused to the N-terminus thereof; made in house; host or cells: Sf9 insect cells (baculovirus, pFastBac-HT)
T1 sequence (Q16832 422-855 limits assumed): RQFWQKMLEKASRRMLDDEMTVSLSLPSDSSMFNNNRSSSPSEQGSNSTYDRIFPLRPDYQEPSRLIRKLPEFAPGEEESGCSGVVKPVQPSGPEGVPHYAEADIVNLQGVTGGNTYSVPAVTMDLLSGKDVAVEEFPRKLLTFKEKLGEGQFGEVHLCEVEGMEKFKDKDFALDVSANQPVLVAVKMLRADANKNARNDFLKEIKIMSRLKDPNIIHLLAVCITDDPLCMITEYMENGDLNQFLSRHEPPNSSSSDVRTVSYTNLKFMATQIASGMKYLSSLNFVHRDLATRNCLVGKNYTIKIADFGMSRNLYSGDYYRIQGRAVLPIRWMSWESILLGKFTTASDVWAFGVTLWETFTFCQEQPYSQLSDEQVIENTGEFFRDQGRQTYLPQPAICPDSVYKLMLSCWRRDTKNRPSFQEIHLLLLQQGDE
As to the kind of experiment: Determination of DDR2 kinase inhibitory activity (His6-DDR2 tyrosine autophosphorylation, HTRF). The class given is biochemical. The following applies: cell free, ATP, room temperature 10 minutes, HTRF detection; read-out: IC50 (concentration of the test substance required for inhibiting His6-DDR2 kinase activity by 50%). An excerpt:
A DNA fragment of cytoplasmic domain of human DDR2 (SEQ ID NO: 1) was isolated by PCR method (Expand High Fidelity (purchased from Roche)) according to a conventional technique using human brain cDNA library (purchased from Clontech) as a template and SEQ ID NO:3: 5′-[…]-3′ and SEQ ID NO:4: 5′-[…]-3′ (purchased from JBioS) as primers. This DNA fragment was inserted into a baculovirus transplacement vector (pFastBac™-HT (purchased from Invitrogen)) to obtain a recombinant construct. Insect cells (Spodoptera frugiperda 9 (Sf9 cells)) were transfected with this recombinant construct, thereby preparing a DDR2 recombinant baculovirus solution. For preparation of a recombinant baculovirus, we referred to a standard textbook (Bac-to-Bac Baculovirus Expression System (Invitrogen)).
The above-described DDR2 recombinant Baculovirus solution (0.07 mL) was added to Sf9 cells (7×10^7 cells) suspended in 2.5% FBS-containing SF-900II medium (purchased from Invitrogen) and shake-cultured at 27° C. for 72 hours. Then, this DDR2 recombinant Baculovirus-infected cells were subjected to centrifugation at 1,600 rpm at 4° C. for 6 minutes and the supernatant was removed. The precipitated infected cells were suspended in 10 mL of ice-cold PBS and centrifuged at 1,600 rpm at 4° C. for 6 minutes to remove the supernatant. The precipitated infected cells were suspended in 5 mL of ice-cold lysis buffer (50 mM Tris-HCl (pH 8.5), 5 mM 2-mercaptoethanol, 100 mM KCl, 1 mM PMSA, 1% (v/v) NP40), and centrifuged at 10,000 rpm at 4° C. for 10 minutes to obtain the supernatant.
This supernatant was added to a Ni-NTA agarose column (1.5 mL (purchased from Qiagen)) equilibrated with 5 mL of buffer A (20 mM Tris-HCl (pH 8.5), 5 mM 2-mercaptoethanol, 500 mM KCl, 20 mM imidazole, 10% (v/v) glycerol). This column was sequentially washed with 10 mL of buffer A, 2 mL of buffer B (20 mM Tris-HCl (pH8.5), 5 mM 2-mercaptoethanol, 1 M KCl, 10% (v/v) glycerol) and 2 mL of buffer A. Subsequently, 4 mL of buffer C (20 mM Tris-HCl (pH 8.5), 5 mM 2-mercaptoethanol, 100 mM KCl, 100 mM imidazole, 10% (v/v) glycerol) was added to obtain an eluate. This eluate was placed in a dialysis membrane (purchased from Spectrum Medical Industries) and dialyzed against 1 L of dialysis buffer (20 mM Tris-HCl, 10% (v/v) glycerol, 1 mM dithiothreitol, 0.1 mM Na3VO4, 0.1 mM EGTA) at 4° C. overnight. After dialysis, a portion of the eluate was subjected to SDS-PAGE and an amount of the recombinant protein detected at a molecular weight of about 40 kDa (His6-DDR2 (cytoplasmic domain of DDR2 having 6 histidines fused to the N-terminus thereof)) by Coomassie brilliant blue staining was quantitated using BSA as a standard substance.
To each well of a 96-well black half plate (purchased from Corning, Product No: 3694), 20 ng of His6-DDR2, 35 μL of 25 mM Hepes solution (pH 7.4) containing 14 mM MgCl2 and a test substance dissolved in dimethylsulfoxide (at 100-fold dilution with 1% BSA; 5 μL) were added to a total amount of 40 μL. To this, […] of 50 μM ATP (purchased with Sigma) diluted with 25 mM Hepes solution was added and incubated at room temperature for 10 minutes. Thereafter, 10 μL of 50 mM EDTA (pH 8.0) (purchased from Wako Pure Chemical Industries) was added to terminate the kinase reaction.
Tyrosine-phosphorylated DDR2 was detected using homogeneous time resolved fluorescence (HTRF) technique (Analytical Biochemistry, 269, 94-104, 1999). Specifically, to each well of the reaction solutions mentioned above, 20 μL of 25 mM Hepes solution containing 1 M KF, 4.75 ng of europium cryptate-labeled anti-phosphorylated tyrosine antibody (Eu(K)-PT66) and 100 ng of XL665-labeled anti-His antibody (XL665-Anti-His) was added. This reaction solution was incubated at room temperature overnight. Thereafter, fluorescence intensities of each well at 665 nm and 620 nm were measured under irradiation at an excitation wavelength of 337 nm using Discovery HTRF microplate analyzer (from Packard). […]
(In general: Time-resolved FRET reads energy transfer from a long-lived donor to a nearby acceptor.)

Take `COc1ccc(NC(=O)Nc2ccc(Oc3ccnc4cc(OC)c(OC)cc34)cc2)cc1` [Compound 1, N-(4-methoxyphenyl)-N′-(4-((6,7-dimethoxy-4-quinolinyl)oxy)phenyl)urea]: the IC50 amounted to 0.06 nM.
With `CCCCNC(=O)Nc1ccc(Oc2ccnc3cc(OC)c(OC)cc23)cc1` [Compound 2, N-n-butyl-N′-(4-((6,7-dimethoxy-4-quinolinyl)oxy)phenyl)urea], the IC50 turned out to be 7.2 nM.
The figure for `COc1cc2nccc(Oc3ccc(NC(=O)Nc4cccc(C(N)=O)c4)cc3)c2cc1OC` [Compound 4, N-(3-carbamoylphenyl)-N′-(4-((6,7-dimethoxy-4-quinolinyl)oxy)phenyl)urea] is 1.3 nM.
Turning to `COc1cc2nccc(Oc3ccc(NC(=O)Nc4cccc(SC)c4)cc3)c2cc1OC` [Compound 5, N-(3-methylthiophenyl)-N′-(4-((6,7-dimethoxy-4-quinolinyl)oxy)phenyl)urea], the IC50 is 1.2 nM.
Next, `COc1cc2nccc(Oc3ccc(NC(=O)Nc4cccc(S(C)(=O)=O)c4)cc3)c2cc1OC` [Compound 6, N-(3-methylsulfonylphenyl)-N′-(4-((6,7-dimethoxy-4-quinolinyl)oxy)phenyl)urea]: 1.1 nM.
Next, `COCCOc1cc2nccc(Oc3ccc(NC(=O)Nc4cccc(S(C)(=O)=O)c4)c(F)c3)c2cc1C#N` [Compound 7, N-(4-(6-cyano-7-(2-methoxyethoxy)-4-quinolyl)oxy-2-fluorophenyl)-N′-(3-methylsulfonylphenyl)urea]: 0.63 nM.
As for `COc1cc2nccc(Oc3ccc(NC(=O)Nc4ccc(F)cc4)c(F)c3)c2cc1C(N)=O` [Compound 8, 4-(4-((4-fluoroanilino)carbonyl)amino-3-fluorophenoxy)-7-methoxy-6-quinoline carboxamide], the IC50 turned out to be 1.2 nM.
In the case of `COc1cc2nccc(Oc3ccc4c(ccn4C(=O)Nc4ccc(F)cc4)c3)c2cc1OC` [Compound 9, 6,7-dimethoxy-4-(5-(1-(4-fluorophenylcarbamoyl)-indolyl)oxy)quinoline], the IC50 stood at 1.9 nM.
The figure for `COc1cc2nccc(Oc3ccc(NC(=O)NCCCSC)c(F)c3)c2cc1C(N)=O` [Compound 10, 4-(3-fluoro-4-((3-methylthiopropylamino)carbonyl)aminophenoxy)-7-methoxy-6-quinolinecarboxamide] is 1.5 nM; for `COc1cc2nccc(Oc3ccc(NC(=O)NC4CC4)c(Cl)c3)c2cc1C(N)=O` [Compound 11, 4-(3-chloro-4-(cyclopropylaminocarbonyl)aminophenoxy)-7-methoxy-6-quinolinecarboxamide] it is 0.91 nM.
`COc1cc2nccc(Oc3ccc4c(ccn4C(=O)NC4CC4)c3)c2cc1C(N)=O` [Compound 12, 6-carbamoyl-4-(1-cyclopropylcarbamoyl-1H-indole-5-yloxy)-7-methoxyquinoline]: the IC50 turned out to be 0.15 nM.
Next, `COCCNC(=O)c1cc2c(Oc3ccc(NC(=O)NC4CC4)c(Cl)c3)ccnc2cc1OC` [Compound 13, N6-(2-methoxyethyl)-4-(3-chloro-4-(((cyclopropylamino)carbonyl)amino)phenoxy)-7-methoxy-6-quinolinecarboxamide]: 18 nM; `CN1CCC(C(=O)Nc2cc(Oc3ccc4c(ccn4C(=O)Nc4ccccc4)c3)ccn2)CC1` [Compound 14, N1-phenyl-5-((2-(((1-methyl-4-piperidyl)carbonyl)amino)-4-pyridyl)oxy)-1H-1-indolecarboxamide]: 0.24 nM.
Next, `N#Cc1cc2c(Oc3ccc(Cl)c(NC(=O)NC4CC4)c3)ccnc2cc1OCCN1CCCC1` [Compound 15, N-(2-chloro-5-((6-cyano-7-(2-(1-pyrrolidino)ethoxy)-quinolyl)oxy)phenyl)-N′-cyclopropylurea]: 822 nM.
In the case of `CNC(=O)Nc1cc(Oc2ccnc3cc(OC)c(C(=O)NC)cc23)ccc1Cl` [Compound 16, N6-methyl-4-(4-chloro-3-(((methylamino)carbonyl)amino)phenoxy)-7-methoxy-6-quinolinecarboxamide], the IC50 worked out at 1890 nM.
On to `N#Cc1cc2c(Oc3ccc(Cl)c(NC(=O)NC4CC4)c3)ccnc2cc1OC[C@H](O)CN1CCCC1` [Compound 17], for which the IC50 is 20.8 nM.
Next, `CNC(=O)c1cc2c(Oc3ccc(NC(=O)NC4CC4)c(Cl)c3)ccnc2cc1OCCOC` [Compound 18, N6-methyl-4-(3-chloro-4-(((cyclopropylamino)carbonyl)amino)phenoxy)-7-(2-methoxyethoxy)-6-quinolinecarboxamide]: 0.4 nM.
`CCNC(=O)Nc1ccc(Oc2ccnc3cc(OC)c(C(=O)NC)cc23)cc1Cl` [Compound 19, N6-methyl-4-(3-chloro-4-(((ethylamino)carbonyl)amino)phenoxy)-7-methoxy-6-quinolinecarboxamide]: the IC50 was 178 nM.
On to `CCNC(=O)Nc1ccc(Oc2ccnc3cc(OC)c(C(=O)NCC)cc23)cc1Cl` [Compound 20, N6-ethyl-4-(3-chloro-4-(((ethylamino)carbonyl)amino)phenoxy)-7-methoxy-6-quinolinecarboxamide], for which the IC50 turned out to be 428 nM.
The figure for `CCNC(=O)Nc1ccc(Oc2ccnc3cc(OC[C@H](O)CN(CC)CC)c(C(=O)NC)cc23)cc1Cl` [Compound 21] is 28 nM; for `CCNC(=O)Nc1ccc(Oc2ccnc3cc(OC[C@H](O)CN4CCCC4)c(C(=O)NC)cc23)cc1Cl` [Compound 22, N6-methyl-4-(3-chloro-4-(((ethylamino)carbonyl)amino)phenoxy)-7-((2R)-2-hydroxy-3-(1-pyrrolidino)propoxy)-6-quinolinecarboxamide] it is 0.4 nM.
With `CCNC(=O)Nc1ccc(Oc2ccnc3cc(OCC4CCN(C)CC4)c(C(=O)NC)cc23)cc1Cl` [Compound 23, N6-methyl-4-(3-chloro-4-(((ethylamino)carbonyl)amino)phenoxy)-7-((1-methyl-4-piperidyl)methoxy)-6-quinolinecarboxamide], the IC50 was found to be 18 nM.

Source of the values: patent US20090203693A1, “THERAPEUTIC AGENT FOR LIVER FIBROSIS” (Eisai R & D Management Co., Ltd., priority 2006, published 2009).
